Experimental data from article PMC2974002 (Journal of medicinal chemistry, 2010).
Read-outs that look alike come from different tables or passages of the source.

Key:
[1] = test system: L1210 murine leukemia cells; assay type: in vivo, DBA/2J mice; details: i.p. on days 1, 5 and 9; for antitumor activity (in words): compared with free drug 11
[2] = Stability to BnSH without soluble base; assay type: physicochemical; details: for stability to treatment with BnSH: BnSH in THF (72 h, 23 °C) or MeOH (72 h, 23 °C)
[3] = Thiol cleavage of prodrugs with BnSH; assay type: physicochemical
L1210 cells = assay: Cell growth inhibition in a cytotoxic assay with L1210 cells; assay type: cell-based, murine; details: for decrease in cytotoxic potency relative to 5: ratio to 5
[4] = Stability in pH 7.0 phosphate buffer; assay type: physicochemical; details: 72 h
[5] = clean release of 11; cited from earlier work
DNA = details: cell free systems; cited from earlier work

Compound | antitumor activity (in words) [1] | stability to treatment with BnSH [2] | half-life [3] | decrease in cytotoxic potency relative to 5 (L1210 cells) | cleavage in pH 7.0 phosphate buffer [4] | dose of maximal effect ([1]; dose range 10–100 μg/kg) | IC50 (L1210 cells) | potency of natural (1S)-enantiomer relative to unnatural (1R)-enantiomer (L1210 cells) | cleavage by BnSH ([2]; under all conditions examined) | half-life in human plasma (t1/2) [5] | half-life ([3]; BnSH (100 equiv) and NaHCO3 (100 equiv) in MeOH) | DNA alkylation (DNA)
NC(=O)NOc1cc2c(c3ccccc13)C(CCl)CN2C(=O)c1cc2cc(NC(=O)c3cc4ccccc4[nH]3)ccc2[nH]1 (centres unmarked) [compound 3, N-(2-(1-(Chloromethyl)-5-(ureidooxy)-2,3-dihydro-1H-benzo[e]indole-3-carbonyl)-1H-indol-5-yl)-1H-indole-2-carboxamide] | active, albeit only at higher doses | stable | 35 h | ten times | no significant cleavage | – | – | – | – | – | – | –
CN(Oc1cc2c(c3ccccc13)C(CCl)CN2C(=O)c1cc2cc(NC(=O)c3cc4ccccc4[nH]3)ccc2[nH]1)C(=O)OC(C)(C)C (centres unmarked) [compound 8, tert-Butyl(3-(5-(1H-indole-2-carboxamido)-1H-indole-2-carbonyl)-1-(chloromethyl)-2,3-dihydro-1H-benzo[e]indol-5-yl)oxy(methyl)carbamate] | – | stable | 48 h | nine-fold | no significant cleavage | – | – | – | – | – | – | –
COC(=O)NOc1cc2c(c3ccccc13)C(CCl)CN2C(=O)c1cc2cc(NC(=O)c3cc4ccccc4[nH]3)ccc2[nH]1 (centres unmarked) [compound 4, Methyl(3-(5-(1H-indole-2-carboxamido)-1H-indole-2-carbonyl)-1-(chloromethyl)-2,3-dihydro-1H-benzo[e]indol-5-yl)oxycarbamate] | active, albeit only at higher doses | stable | 10 h | five times | no significant cleavage | – | – | – | – | – | – | –
seco-CBI-indole2 [compound 11, reference compound] | – | – | – | – | – | 0.06 mg/kg | 0.03 nM | ca. 30 fold | – | – | – | –
CC(C)(C)C(=O)NOc1cc2c(c3ccccc13)C(CCl)CN2C(=O)c1cc2cc(NC(=O)c3cc4ccccc4[nH]3)ccc2[nH]1 (centres unmarked) [compound 6, N-(2-(1-(Chloromethyl)-5-(pivalamidooxy)-2,3-dihydro-1H-benzo[e]indole-3-carbonyl)-1H-indol-5-yl)-1H-indole-2-carboxamide] | – | – | < 0.5 h | – | completely cleaved | – | – | – | rapidly cleaved | – | – | –
CC(C)(C)OC(=O)NOc1cc2c(c3ccccc13)C(CCl)CN2C(=O)c1cc2cc(NC(=O)c3cc4ccccc4[nH]3)ccc2[nH]1 (centres unmarked) [compound 5, tert-Butyl(3-(5-(1H-indole-2-carboxamido)-1H-indole-2-carbonyl)-1-(chloromethyl)-2,3-dihydro-1H-benzo[e]indol-5-yl)oxycarbamate] | matched or exceeded the efficacy of the free drug 11 at each dose | stable | – | – | no significant cleavage | – | – | – | – | 3 to 6 h | 6 h | incapable of alkylating DNA
